Experimental data: patent US7812032B2 (Abbott Laboratories, priority 2006, dated 2010)
Where two headings read alike, the source gives them in different places.

Key:
[1] = pharmacokinetics after single intravenous dose in cynomolgus monkey; format: in vivo; settings: for terminal elimination half-life (t1/2) compared to rapamycin: 2.5 mg/kg intravenous; for t1/2: in vivo, iv, 2.5 mg/kg
[2] = system: human mixed lymphocyte reaction (MLR); assay: human mixed lymphocyte reaction (MLR) assay; format: cell-based; settings: read-out: Human MLR IC50 ± S.E.M.
[3] = loading and release of ABT-578 from 15 mm BiodivYsio drug delivery stents; format: physicochemical; settings: 15 mm BiodivYsio stents, 0.01 M phosphate buffer pH 6.0
Description: Twelve individual polymer-coated stents were placed on fixtures designed to hold the stent in a vertical position and the stents were immersed vertically in the drug solution for five minutes. The stents and fixtures were removed from the vials and excess drug solution was blotted away by contacting the stents with an absorbant material. The stents were then allowed to dry in air for 30 minutes in an inverted vertical position.
The stents were removed from the fixtures, and each stent was placed into 50/50 acetonitrile/phosphate buffer (pH 5.1, 2.0 ml) and sonicated for one hour. The stents were removed from the solution and solutions were assayed for concentration of drug, which allowed calculation of the amount of drug originally on the stents. This method was independently shown to remove at least 95% of the drug from the stent coating. On average, the stents contained 60 micrograms of drug ±20 micrograms.
The drug-loaded stents were placed on the fixtures and placed into 0.01 M phosphate buffer (pH=6.0, 1.9 ml) in individual vials. These samples were placed onto an Eberbach shaker set at low speed to provide back-and-forth agitation. To avoid approaching drug saturation in the buffer, the stents were transferred periodically to fresh buffer vials at the following points: 15, 30, 45, 60, 120, 135, 150, 165, 180, 240, 390 minutes. The dissolution buffer vials were assayed by HPLC for the drug concentration at the end of the drug release period studied. The data, represented as % cumulative release of the drug as a function of time, is shown in tabular form below: […]

[4] = system: in-stent neointima formation in coronary arteries of adult miniature swine; assay: safety and efficacy of ABT-578 dosages on in-stent neointima formation, BiodivYsio OC stent in swine; format: in vivo, Yucatan miniature swine
Description: The purpose of this example was to evaluate the safety and efficacy of different drug dosages on neointima formation. […] In-stent neointima formation was measured at […] time intervals; 3 days, 1 month, and 3 months in the coronary arteries of adult miniature swine. Forty (40) animals were studied at each time interval (10 animals per dose). Each animal received one drug-coated stent and one control stent. The control stent contained no drug.
Potential local tissue toxicity was assessed at all time intervals by examining histopathologic changes in the stented region, adjacent coronary segments, perivascular tissue, and subserved myocardium. The mortality, angiographic implant and restudy data, histomorphometry data, and stent site histopathology were studied.

[5] = rate of release of A-179578 from 316L stainless steel coupons coated with PC polymer; format: physicochemical; settings: PC polymer coated 316L coupons, 0.01 M phosphate buffer pH 6.0
Text: Rubber septa from lids from HPLC vials were removed from the vials and placed into glass vials so that the “Teflon” side faced up. These septa served as supports for the test samples. The test samples were 316L stainless steel coupons that had been previously coated with a biocompatible polymer containing phosphorylcholine side groups (PC polymer). Coronary stents are commonly made of 316L stainless steel and can be coated with the PC polymer to provide a depot site for loading drugs. The coated coupons, which serve to simulate stents, were placed onto the septa. By using a glass Hamilton Syringe, a solution of A-179578 and ethanol (10 μl) was applied to the surface of each coupon. The solution contained A-179578 (30.6 mg) dissolved in 100% ethanol (3.0 ml). The syringe was cleaned with ethanol between each application. The cap to the glass vial was placed on the vial loosely, thereby assuring proper ventilation. The coupon was allowed to dry for a minimum of 1.5 hours. Twelve (12) coupons were loaded in this way, six being used to determine the average amount of drug loaded onto the device and six being used to measure the time needed to release the drug from the devices.
The coupon was placed onto a 5210 Branson sonicator for one hour. The coupon was then removed from the solution, and the solution was assayed by HPLC.
The time release studies were performed by immersing and removing the individual coupons from fresh aliquots (10.0 ml) of 0.01 M phosphate buffer at a pH of 6.0 at each of the following time intervals; 5, 15, 30 and 60 minutes. For the remaining time points of 120, 180, 240, 300, 360 minutes, volumes of 5.0 ml of buffer were used. To facilitate mixing during the drug release phase, the samples were placed onto a Eberbach shaker set at low speed. All solution aliquots were assayed by HPLC after the testing of the last sample was completed.
The HPLC analysis was performed with a Hewlett Packard series 1100 instrument having the following settings: Injection Volume is 100 μl; Acquisition Time is 40 minutes; Flow Rate is 1.0 ml/min; Column Temperature is 40 degrees Celsius; Wavelength is 278 nm; Mobile Phase is 65% Acetonitrile/35% H2O; and Column is YMC ODS-A S5 μm, 4.6×250 mm (Part No. A12052546WT).

[6] = system: neointimal hyperplasia in porcine coronary arteries containing stents; assay: porcine coronary stent model, A-179578 eluted from BiodivYsio PC coronary stent, 28 days; format: in vivo
Text: The control stents are polymer-coated without drugs. This is important, for the polymer itself must not stimulate neointimal hyperplasia to a substantial degree. As the eluted drug disappears, an inflammatory response to the polymer could conceivably result in a late “catch-up phenomenon” where the restenosis process is not stopped, but instead slowed. This phenomenon would result in restenosis at late dates in human subjects.
Stents were implanted in two blood vessels in each pig. Pigs used in this model were generally 2-4 months old and weighed 30-40 kg. Two coronary stents were thus implanted in each pig by visually assessing a “normal” stent:artery ratio of 1.1-1.2.
Beginning on the day of the procedure, pigs were given oral aspirin (325 mg daily) and continued for the remainder of their course. General anesthesia was achieved by means of intramuscular injection followed by intravenous ketamine (30 mg/kg) and xylazine (3 mg/kg). Additional medication at the time of induction included atropine (1 mg) and flocillin (1 g) administered intramuscularly. During the stenting procedure, an intraarterial bolus of 10,000 units of heparin was administered.
Arterial access was obtained by cutdown on the right external carotid and placement of an 8F sheath. After the procedure, the animals were maintained on a normal diet without cholesterol or other special supplementation.
The BiodivYsio stent was used with nominal vessel target size of 3.0 mm. Two coronary arteries per pig were assigned at random to deployment of the stents. The stent was either a drug eluting stent (polymer plus drug stent) or a stent coated with a polymer only (polymer only stent). The stents were delivered by means of standard guide catheters and wires. The stent balloons were inflated to appropriate sizes for less than 30 seconds.
Each pig had one polymer only stent and one polymer plus drug stent placed in separate coronary arteries, so that each pig would have one stent for drug and one for control. A sample size of 20 pigs total was chosen to detect a projected difference in neointimal thickness of 0.2 mm with a standard deviation of 0.15 mm, at a power of 0.95 and […] 0.02.
Animals were euthanized at 28 days for histopathologic examination and quantification. Following removal of the heart from the perfusion pump system, the left atrial appendage was removed for access to the proximal coronary arteries. Coronary arterial segments with injuries were dissected free of the epicardium. Segments containing lesions were isolated, thereby allowing sufficient tissue to contain uninvolved blood vessel at either end. […]
The severity of vessel injury and the neointimal response were measured by calibrated digital microscopy. […]

[7] = one month, dose groups 3 and 4 vs control
[8] = porcine coronary artery, 28 days

Question: With `CO[C@H]1C[C@@H]2CC[C@@H](C)[C@@](O)(O2)C(=O)C(=O)N2CCCC[C@H]2C(=O)O[C@H]([C@H](C)C[C@@H]2CC[C@H](n3ncnn3)[C@H](OC)C2)CC(=O)[C@H](C)/C=C(\C)[C@@H](O)[C@@H](OC)C(=O)[C@H](C)C[C@H](C)/C=C/C=C/C=C/1C` [Example 1B, 42-(2-tetrazolyl)-rapamycin] as the compound, how does the “terminal elimination half-life (t1/2) compared to rapamycin” value [1] read?
Answer: substantially shorter

Question: With `CO[C@H]1C[C@@H]2CC[C@@H](C)[C@@](O)(O2)C(=O)C(=O)N2CCCC[C@H]2C(=O)O[C@H]([C@H](C)C[C@@H]2CC[C@@H](O)[C@H](OC)C2)CC(=O)[C@H](C)/C=C(\C)[C@@H](O)[C@@H](OC)C(=O)[C@H](C)C[C@H](C)/C=C/C=C/C=C/1C` [Rapamycin] as the compound, how does the IC50 ([2]; Homo sapiens, Lymphocyte) read?
Answer: 0.91 ± 0.36 nM

Question: What does the source list for “40-epi-N-[2′-pyridone]-rapamycin [Example 2-pyridone, reference compound]”?
Answer: t1/2 [1]: 2.8 h; IC50 [2]: 12.4 ± 5.3 nM

Question: Which t1/2 [1] does the source give for `COC1CC2CCC(C)C(O)(O2)C(=O)C(=O)N2CCCCC2C(=O)OC(C(C)CC2CCC(n3ccc(=O)cc3)C(OC)C2)CC(=O)C(C)C=C(C)C(O)C(OC)C(=O)C(C)CC(C)C=CC=CC=C1C` (stereo not drawn) [Example 4-pyridone, 40-epi-N-[4′-pyridone]-rapamycin, reference compound] here?
Answer: 13.3 h

Question: And the IC50 [2]?
Answer: 0.43 ± 0.2 nM

Question: For `CO[C@H]1C[C@@H]2CC[C@@H](C)[C@@](O)(O2)C(=O)C(=O)N2CCCC[C@H]2C(=O)O[C@H]([C@H](C)C[C@@H]2CC[C@H](n3cnnn3)[C@H](OC)C2)CC(=O)[C@H](C)/C=C(\C)[C@@H](O)[C@@H](OC)C(=O)[C@H](C)C[C@H](C)/C=C/C=C/C=C/1C` [Example 1C, 42-(1-tetrazolyl)-rapamycin], which “terminal elimination half-life (t1/2) compared to rapamycin” value [1] is on record?
Answer: substantially shorter

Question: What about the “% Cumulative Release of Drug” value ([3]; 15 min) of the same compound?
Answer: 0.3%

Question: And the “% Cumulative Release of Drug” value ([3]; 30 min)?
Answer: 1.1%

Question: And the “% Cumulative Release of Drug” value ([3]; 45 min)?
Answer: 2.1%

Question: What about the “% Cumulative Release of Drug” value ([3]; 60 min) of the same compound?
Answer: 3.2%

Question: What about the “% Cumulative Release of Drug” value ([3]; 120 min) of the same compound?
Answer: 4.3%

Question: What about the “% Cumulative Release of Drug” value ([3]; 135 min) of the same compound?
Answer: 5.9%

Question: What about the “% Cumulative Release of Drug” value ([3]; 150 min) of the same compound?
Answer: 6.3%

Question: And the “% Cumulative Release of Drug” value ([3]; 165 min)?
Answer: 6.8%

Question: What about the “% Cumulative Release of Drug” value ([3]; 180 min) of the same compound?
Answer: 7.4%

Question: And the “% Cumulative Release of Drug” value ([3]; 240 min)?
Answer: 10.8%

Question: And the “% Cumulative Release of Drug” value ([3]; 390 min)?
Answer: 13.2%

Question: What about the “local coronary arterial wall toxicity (medial necrosis or stent malapposition)” value ([4]; any dose group incl. approximately 27 μg/mm, any time interval) of the same compound?
Answer: no local coronary arterial wall toxicity

Question: What about the “histologic % stenosis” value ([4]; one month, dose group 3 vs control) of the same compound?
Answer: tendency towards decreased

Question: What about the “Intima area normalized to injury score” value ([4]; one month, dose groups 3 and 4 (10 and 27 μg/mm) vs control) of the same compound?
Answer: significantly decreased

Question: What about the “absolute intima area” value [4, 7] of the same compound?
Answer: trends for decreases

Question: And the “intima thickness” value [4, 7]?
Answer: trends for decreases

Question: And the “vessel wall toxicity” value ([4]; one month, even at the highest dose (27 μg/mm))?
Answer: no evidence of vessel wall toxicity

Question: And the “neointima formation in stented coronary arteries” value ([4]; one-month group, locally eluted)?
Answer: significant inhibitory effect

Question: And the “endothelial recovery over the stent struts” value ([4]; three days after implant, regardless of dosage)?
Answer: did not appear retarded

Question: What about the “neointima cross-sectional area and % area stenosis of the lumen” value ([4]; three-month period) of the same compound?
Answer: weak trends for decreases

Question: And the “histomorphometric parameters of stented coronary arterial dimension” value ([4]; three-month period, between the dose groups)?
Answer: no significant differences

Question: For `COC1CC2CCC(C)C(O)(O2)C(=O)C(=O)N2CCCCC2C(=O)OC(C(C)CC2CCC(n3cnnn3)C(OC)C2)CC(=O)C(C)C=C(C)C(O)C(OC)C(=O)C(C)CC(C)C=CC=CC=C1C` (centres unmarked) [Example 1C, 42-(1-tetrazolyl)-rapamycin], which “Percent Release” value ([5]; 0.00 min) is on record?
Answer: 0.00

Question: And the “Percent Release” value ([5]; 5.00 min)?
Answer: 1.87

Question: And the “Percent Release” value ([5]; 15.00 min)?
Answer: 2.97

Question: What about the “Percent Release” value ([5]; 30.00 min) of the same compound?
Answer: 3.24

Question: And the “Percent Release” value ([5]; 60.00 min)?
Answer: 3.29

Question: What about the “Percent Release” value ([5]; 180.00 min) of the same compound?
Answer: 4.36

Question: And the “Percent Release” value ([5]; 240.00 min)?
Answer: 4.37

Question: What about the “Percent Release” value ([5]; 300.00 min) of the same compound?
Answer: 6.34

Question: And the “Percent Release” value ([5]; 360.00 min)?
Answer: 7.88

Question: And the “lumen area vs polymer only stent” value [6, 8]?
Answer: greater lumen area

Question: What about the “neointimal area vs polymer only stent” value [6, 8] of the same compound?
Answer: lower neointimal area

Question: What about the “neointimal thickness vs polymer only stent” value [6, 8] of the same compound?
Answer: lower neointimal thickness

Question: What about the “neointimal hyperplasia” value ([6]; stent with polymer placed in porcine coronary artery) of the same compound?
Answer: reduction in neointimal hyperplasia
